The subject of one experiment is ovariectomized rats. The experiment is described as follows: Ovariectomized rat model of postmenopausal hyperlipidemia (serum cholesterol, uterine weight, uterine eosinophil infiltration). In kind it is in vivo. Particulars: for Serum Cholesterol % Decrease / Uterine Weight Increase: versus ovariectomized controls. The method, then:
Experimental models of postmenopausal hyperlipidemia are known in the art.
This uterine response to estrogen is well recognized in the art.
As expressed in the data below, estrogenicity also was assessed by evaluating the response of eosinophil infiltration into the uterus.
The data presented in Table 2 reflect the response per treatment group.

Experiment [1] deals with MCF-7 breast adenocarcinoma cells. The experiment is described as follows: MCF-7 Proliferation Assay. In kind it is cell-based. Particulars: dose level of 500 nM. The method, then: A. MCF-7 Proliferation Assay Test Procedure MCF-7 breast adenocarcinoma cells (ATCC HTB 22) are maintained in MEM (minimal essential medium, phenol-red free, Sigma St. Louis Mo.) supplemented with 10% fetal bovine serum (FBS) (v/v), L-glutamine (2 mM), sodium pyruvate ([…]), HEPES (10 mM), non-essential amino acids, and bovine insulin (1 ug/mL). Ten days prior to the assay, the MCF-7 cells are switched to maintenance medium supplemented with 10% dextran-coated charcoal stripped fetal bovine serum (DCC-FBS) assay medium in place of the 10% FBS to deplete internal stores of estrogen. MCF-7 cells are removed from the maintenance flasks using a cell dissociating medium (Ca/Mg free HBSS; phenol-red free) supplemented with 10 mM HEPES and 2 mM EDTA. Cells are washed twice with the assay medium and adjusted to 80,000 cells/mL. Approximately 100 uL (8,000 cells)are added to a flat-bottomed micro culture well (Costar 3596) and incubated at 37° C. in a 5% CO2 humidified incubator for 48 hours to allow cell adherence and equilibrium after transfer. […] Samples are counted by liquid scintillation. Fifty percent inhibitory concentration of the test drugs (IC50) are determined versus the control (DMSO).

In the next experiment the target is estrogen receptor (Homo sapiens, UniProt P03372). Particulars: competition with 0.5 nM 3H-17β-estradiol, MCF-7 lysate protein, 18 hours at 5° C. The method, then: Representative compounds of the present invention were tested in an estrogen receptor binding assay in which the test compounds were allowed to compete for binding with tritiated 17β-estradiol.
In the assay, serial dilutions of the test compound were mixed with 0.5 nM of ^3 H-17β-estradiol, along with 0.5 mg/mL of protein from MCF-7 lysates, to a total volume of 0.14 mL. Binding was allowed to take place for 18 hours at 5° C., followed by the addition of 0.07 mL of dextran/charcoal and centrifugation to remove non-bound radioligand. Aliquots of supernate containing bound radioligand were mixed with scintillant and counted. Relative binding affinity (RBA) was calculated as: [formula]

estrogen receptor, sequence (P03372 whole entry): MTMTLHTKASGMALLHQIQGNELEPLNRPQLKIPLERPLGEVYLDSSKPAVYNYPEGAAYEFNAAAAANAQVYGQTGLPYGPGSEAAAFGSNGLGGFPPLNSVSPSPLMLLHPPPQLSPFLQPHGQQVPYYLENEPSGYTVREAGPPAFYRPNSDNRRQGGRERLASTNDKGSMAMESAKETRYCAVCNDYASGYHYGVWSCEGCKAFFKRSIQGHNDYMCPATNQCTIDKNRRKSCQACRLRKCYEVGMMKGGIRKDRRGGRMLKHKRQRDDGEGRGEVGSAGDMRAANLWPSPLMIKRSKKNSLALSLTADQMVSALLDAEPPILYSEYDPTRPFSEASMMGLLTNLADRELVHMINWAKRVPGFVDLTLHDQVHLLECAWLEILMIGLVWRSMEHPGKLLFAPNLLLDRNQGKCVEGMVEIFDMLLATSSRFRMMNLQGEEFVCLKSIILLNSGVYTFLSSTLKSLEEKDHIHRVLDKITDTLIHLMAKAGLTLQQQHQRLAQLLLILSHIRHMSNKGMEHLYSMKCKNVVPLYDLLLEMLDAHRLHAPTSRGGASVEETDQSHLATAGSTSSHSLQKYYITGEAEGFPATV

Take `C#C[C@]1(O)CC[C@H]2[C@@H]3CCc4cc(O)ccc4[C@H]3CC[C@@]21C` [EE2, 17-a-ethynyl estradiol, reference compound]: the “eosinophil infiltration into the uterus (in words)” value in the experiment with ovariectomized rats (EE2 group) was “substantial and expected increase in eosinophil infiltration”. In addition, in the experiment on ovariectomized rats (dose 0.1 mg/kg), the “Uterine Eosinophil (Vmax) (eosinophil peroxidase, Vmaximum)” value (“Uterine Eosinophil (Vmax)” for short) is given as 111.2; the “Serum Cholesterol % Decrease” value is 88.1%; the “Uterine Weight Increase” value was found to be 125.8%. In the experiment with ovariectomized rats (orally administered at 0.1 mg/kg/day), the “serum cholesterol (in words)” value was “caused a decrease in serum cholesterol”. The “uterine weight (in words)” value with ovariectomized rats (orally at 0.1 mg/kg/day, versus ovariectomized animals) is “substantially greater than the uterine weight of the ovariectomized animals”.
As for `COc1ccc2c3c(sc2c1)C1=CC[C@H](O)[C@@]1(C)CC3` [Example 1, 3β-Hydroxy-8-methoxy-3aβ-methyl-3,3a,4,5-tetrahydro-2H-benz[b]indeno[5,4-d]thiophene], the “Uterine Eosinophil (Vmax)” value in the experiment on ovariectomized rats (dose 0.01 mg/kg) came out at 4.5; with ovariectomized rats (dose 0.1 mg/kg), 5.4; in the experiment on ovariectomized rats (dose 1.0 mg/kg), 4.8; in the experiment with ovariectomized rats (dose 10.0 mg/kg) it was 25.2. Besides, the “Serum Cholesterol % Decrease” value in the experiment on ovariectomized rats (dose 0.01 mg/kg) was found to be 30.0%; with ovariectomized rats (dose 0.1 mg/kg) it was 5%; in the experiment on ovariectomized rats (dose 1.0 mg/kg), 27.5%; with ovariectomized rats (dose 10.0 mg/kg), 60.3%. Besides, the “Uterine Weight Increase” value is given as -4.6% in the experiment on ovariectomized rats (dose 0.01 mg/kg), 6.3% in the experiment on ovariectomized rats (dose 0.1 mg/kg), 34.9% in the experiment on ovariectomized rats (dose 1.0 mg/kg) and 52.7% in the experiment with ovariectomized rats (dose 10.0 mg/kg).
As to `COc1ccc2c3c(sc2c1)[C@@H]1CC[C@@H](O)[C@]1(C)CC3` [Example 4a, 3α-Hydroxy-8-methoxy-3aα-methyl-2,3,3a,4,5,10bα-hexahydro-1H-benz[b]indeno[5,4-d]thiophene], in the experiment with ovariectomized rats (dose 0.1 mg/kg), the “Uterine Eosinophil (Vmax)” value came to 3.6; the “Serum Cholesterol % Decrease” value is reported as -5.5%; the “Uterine Weight Increase” value is on record as 10.4%. In addition, in the experiment with ovariectomized rats (dose 1.0 mg/kg), the “Uterine Eosinophil (Vmax)” value is on record as 3.3; the “Serum Cholesterol % Decrease” value is -8.1%; the “Uterine Weight Increase” value was determined as 14.8%. Besides, in the experiment with ovariectomized rats (dose 10.0 mg/kg), the “Uterine Eosinophil (Vmax)” value was found to be 2.4; the “Serum Cholesterol % Decrease” value was 63.8%; the “Uterine Weight Increase” value was 37.6%.
On to `COc1ccc2c3c(sc2c1)[C@H]1CC[C@@H](O)[C@]1(C)CC3` [Example 4b, 3α-hydroxy-8-methoxy-3aα-methyl-2,3,3a,4,5,10bβ-hexahydro-1H-benz[b]indeno[5,4-d]thiophene], for which, in the experiment with ovariectomized rats (dose 0.1 mg/kg), the “Uterine Eosinophil (Vmax)” value was 3.9; the “Serum Cholesterol % Decrease” value is recorded as -12%; the “Uterine Weight Increase” value is on record as -2.6%. Further, in the experiment with ovariectomized rats (dose 1.0 mg/kg), the “Uterine Eosinophil (Vmax)” value was 3.9; the “Serum Cholesterol % Decrease” value was -4.3%; the “Uterine Weight Increase” value is given as 10.7%. Also, in the experiment with ovariectomized rats (dose 10.0 mg/kg), the “Uterine Eosinophil (Vmax)” value came to 30.0; the “Serum Cholesterol % Decrease” value amounted to 73.1%; the “Uterine Weight Increase” value came to 116.3%.
Turning to `COc1ccc2c3c(sc2c1)[C@@H]1CC[C@@H](O)[C@@]1(C)CC3` [Example 5, 3α-Hydroxy-8-methoxy-3aβ-methyl-2,3,3a,4,5,10bα-tetrahydro-1H-benz[b]indeno[5,4-d]thiophene], the “Uterine Eosinophil (Vmax)” value was 2.1 with ovariectomized rats (dose 0.01 mg/kg), 3.6 with ovariectomized rats (dose 0.1 mg/kg), 4.5 in the experiment on ovariectomized rats (dose 1.0 mg/kg) and 18.3 in the experiment with ovariectomized rats (dose 10.0 mg/kg). Moreover, the “Serum Cholesterol % Decrease” value in the experiment with ovariectomized rats (dose 0.01 mg/kg) was 14.8%; in the experiment on ovariectomized rats (dose 0.1 mg/kg) it was -18.5%; in the experiment on ovariectomized rats (dose 1.0 mg/kg), 40.9%; with ovariectomized rats (dose 10.0 mg/kg), 87.0%. The “Uterine Weight Increase” value is reported as -5.9% in the experiment on ovariectomized rats (dose 0.01 mg/kg), 1.7% in the experiment with ovariectomized rats (dose 0.1 mg/kg), 13.7% in the experiment with ovariectomized rats (dose 1.0 mg/kg) and 103.6% in the experiment on ovariectomized rats (dose 10.0 mg/kg).
As to `COc1ccc2c3c(sc2c1)[C@H]1CC[C@H](O)[C@]1(C)CC3` [Example 6, 3β-Hydroxy-8-methoxy-3aα-methyl-2,3,3a,4,5,10bβ-tetrahydro-1H-benz[b]indeno[5,4-d]thiophene], in the experiment with ovariectomized rats (dose 0.1 mg/kg), the “Uterine Eosinophil (Vmax)” value was 3.0; the “Serum Cholesterol % Decrease” value is reported as -0.3%; the “Uterine Weight Increase” value was 4.8%. For the same compound, in the experiment with ovariectomized rats (dose 1.0 mg/kg), the “Uterine Eosinophil (Vmax)” value is 1.2; the “Serum Cholesterol % Decrease” value is on record as -4.7%; the “Uterine Weight Increase” value is 9.8%. For the same compound, in the experiment with ovariectomized rats (dose 10.0 mg/kg), the “Uterine Eosinophil (Vmax)” value turned out to be 8.1; the “Serum Cholesterol % Decrease” value amounted to 63.7%; the “Uterine Weight Increase” value is listed as 86.9%.
`C[C@]12CCc3c(sc4cc(O)ccc34)[C@H]1CC[C@@H]2O` [Example 7, 3β,8-Dihydroxy-3aβ-methyl-2,3,3a,4,5,10bβ-tetrahydro-1H-benz[b]indeno[5,4-d]thiophene]: the “inhibition of breast cancer cell proliferation” value in experiment [1] was “inhibit breast cancer cell proliferation”. Moreover, the “Uterine Eosinophil (Vmax)” value with ovariectomized rats (dose 0.01 mg/kg) came out at 4.8; in the experiment with ovariectomized rats (dose 0.1 mg/kg), 4.8; in the experiment with ovariectomized rats (dose 1.0 mg/kg) it was 3.6; with ovariectomized rats (dose 10.0 mg/kg), 123.0. The “Serum Cholesterol % Decrease” value in the experiment with ovariectomized rats (dose 0.01 mg/kg) turned out to be 24.3%; with ovariectomized rats (dose 0.1 mg/kg), 13%; in the experiment with ovariectomized rats (dose 1.0 mg/kg), 45.9%; in the experiment on ovariectomized rats (dose 10.0 mg/kg) it was 80.7%. For the same compound, the “Uterine Weight Increase” value in the experiment with ovariectomized rats (dose 0.01 mg/kg) was -3.2%; in the experiment with ovariectomized rats (dose 0.1 mg/kg), 4.4%; with ovariectomized rats (dose 1.0 mg/kg), 9.1%; in the experiment with ovariectomized rats (dose 10.0 mg/kg), 123.0%. Moreover, the “Relative binding affinity (RBA)” value on estrogen receptor was determined as 11.
Turning to `C[C@]12CCc3c(sc4cc(O)ccc34)[C@@H]1CC[C@@H]2O` [Example 8, 3β,8-Dihydroxy-3aβ-methyl-2,3,3a,4,5,10bα-tetrahydro-1H-benz[b]indeno[5,4-d]thiophene], the “Uterine Eosinophil (Vmax)” value was 4.2 in the experiment with ovariectomized rats (dose 0.01 mg/kg), 4.5 with ovariectomized rats (dose 0.1 mg/kg), 3.0 in the experiment with ovariectomized rats (dose 1.0 mg/kg) and 14.7 in the experiment with ovariectomized rats (dose 10.0 mg/kg). Further, the “Serum Cholesterol % Decrease” value in the experiment with ovariectomized rats (dose 0.01 mg/kg) is on record as -1%; in the experiment on ovariectomized rats (dose 0.1 mg/kg), 10.6%; with ovariectomized rats (dose 1.0 mg/kg), 16.9%; in the experiment with ovariectomized rats (dose 10.0 mg/kg), 30.7%. Also, the “Uterine Weight Increase” value in the experiment on ovariectomized rats (dose 0.01 mg/kg) came to 13.7%; in the experiment with ovariectomized rats (dose 0.1 mg/kg) it was 1.4%; with ovariectomized rats (dose 1.0 mg/kg), 0.2%; with ovariectomized rats (dose 10.0 mg/kg) it was 48.4%. Besides, at estrogen receptor, the “Relative binding affinity (RBA)” value came to 16.
As to `C[C@]12CCc3c(sc4cc(O)ccc34)[C@@H]1CC[C@H]2O` [Example 9, 3α,8-Dihydroxy-3aβ-methyl-2,3,3a,4,5,10bα-tetrahydro-1H-benz[b]indeno[5,4-d]thiophene], the “Uterine Eosinophil (Vmax)” value with ovariectomized rats (dose 0.01 mg/kg) turned out to be 4.5; in the experiment with ovariectomized rats (dose 0.1 mg/kg) it was 3.3; in the experiment with ovariectomized rats (dose 1.0 mg/kg) it was 3.9; in the experiment with ovariectomized rats (dose 10.0 mg/kg), 106.5. The “Serum Cholesterol % Decrease” value in the experiment with ovariectomized rats (dose 0.01 mg/kg) came out at 5.7%; in the experiment with ovariectomized rats (dose 0.1 mg/kg), 12.4%; in the experiment with ovariectomized rats (dose 1.0 mg/kg), 32.1%; in the experiment with ovariectomized rats (dose 10.0 mg/kg), 90.9%. In addition, the “Uterine Weight Increase” value with ovariectomized rats (dose 0.01 mg/kg) is 5.5%; in the experiment with ovariectomized rats (dose 0.1 mg/kg) it was 10.2%; with ovariectomized rats (dose 1.0 mg/kg), -5.3%; in the experiment on ovariectomized rats (dose 10.0 mg/kg) it was 103.1%. In addition, at estrogen receptor, the “Relative binding affinity (RBA)” value was 9.
As for `C[C@@]12CCc3c(sc4cc(O)ccc34)[C@@H]1CC[C@H]2O` [Example 10, 3α,8-Dihydroxy-3aα-methyl-2,3,3a,4,5,10bα-tetrahydro-1H-benz[b]indeno[5,4-d]thiophene], the “Relative binding affinity (RBA)” value at estrogen receptor was 4.
For `C[C@@]12CCc3c(sc4cc(O)ccc34)[C@H]1CC[C@H]2O` [Example 11, 3α,8-Dihydroxy-3aα-methyl-2,3,3a,4,5,10bβ-tetrahydro-1H-benz[b]indeno[5,4-d]thiophene], the “Relative binding affinity (RBA)” value on estrogen receptor worked out at 4.

Values taken from patent publication US6218425A, “8-substituted B-nor-6-Thiaequilenin compounds having activity as selective estrogen receptor modulators” (Eli Lilly and Company, priority 1997, dated 2001).
